How the values were obtained:
U2OS cells = test: Calcium ionophore A23187-induced loss of mitochondrial membrane potential (TMRM dye release); assay type: cell-based; details: TMRM dye
From the text: FIG. 22A, FIG. 22B, FIG. 22C, FIG. 22D, FIG. 22E and FIG. 22F: Example 45 Compound Preserves Mitochondrial Membrane Potential in Parallel to Proneurogenic Activity U2OS cells were loaded with tetramethylrhodamine methyl ester (TMRM) dye and then exposed to the calcium ionophore A23187 either in the presence or absence of test compounds. Example 45 Compound (FIG. 22A) preserved mitochondrial membrane potential following exposure to the calcium ionophore A23187 in a dose-dependent manner. The protective effect of P7C3 was enantiomeric specific. […] Each compound was evaluated in triplicate with similar results.
Extensive evidence pioneered by the laboratory of Xiaodong Wang has shown that an intrinsic pathway leading to programmed cell death emanates from mitochondria (Liu et al., Cell 1996, 86, 147-157; Yang et al., Science 1997, 275, 1129-1132). With the help of the Wang lab, assays were established to test whether Example 45 Compound might protect mitochondria from calcium-induced dissolution (Distelmaier et al., Cytometry A 2008, 73, 129-138). Tetramethylrhodamine methyl ester (TMRM) is a cell-permeant, cationic red-orange fluorescent dye that is readily sequestered by active mitochondria. When loaded with TMRM dye, vehicle-only treated cells released the dye within 15 minutes of exposure to the calcium ionophore A23187. By contrast, dye release was prevented in cells exposed to as little as […] of Example 45 Compound (FIG. 18A).
Since P7C3 ameliorates the death of newborn neurons in the dentate gyrus in living mice, it is possible that its function might relate to mitochondrial integrity. Assays were established to test whether P7C3 might protect cultured U2OS cells from calcium-induced mitochondrial dissolution (Distelmaier et al., Cytometry A 2008, 73, 129-138). Tetramethylrhodamine methylester (TMRM) dye is sequestered by active mitochondria, and, when loaded with TMRM, vehicle-treated cells released the dye within 15 rain of exposure to the calcium ionophor A23 187.

[1] = tested on: neural precursor cells in the subgranular zone of the dentate gyrus; test: In vivo pro-neurogenic efficacy/neuroprotection assay: intracerebroventricular infusion, BrdU incorporation in the dentate gyrus; set-up: species or system mouse (C57/Bl6); details: direct administration into the brain via Alzet minipumps for one week, 10 μM unless stated
Procedure: Compounds were evaluated for pro-neurogenic efficacy/neuroprotection in our standard in vivo assay at 10 μM concentration in four 12 week old adult male C57/Bl6 mice.
In an effort to identify compounds that might stimulate the birth of new neurons, or protect newborn neurons from cell death, a library of 1,000 compounds was screened using an in vivo assay. In the initial screen, compounds were randomly pooled into groups often and administered intracerebroventricularly at a constant rate over seven days into the left lateral ventricle of living mice via Alzet osmotic mini-pumps. Compounds were administered at a concentration of 10 μM for each molecule, making a total solute concentration of 100 μM. After seven days of infusion at a constant rate of 0.5 μL/hour, a total of 84 μL of volume will have left the pump (0.00084 μMoles) and entered the cerebrospinal fluid. The average volume of a brain from a 12 week old male, C57/B6 mouse in our study is 500 mm^3. […] Under these conditions, at the end of one week of infusion each compound would be present at 1.7 μMolar concentration. Since the actual amount of chemical compound in the brain is likely to be only a fraction of this predicted level, it is reasonable to estimate that compounds were administered at mid to low-nanomolar concentrations.
During compound infusion, animals were intraperitoneally (IP) injected daily with the thymidine analog, bromodeoxyuridine (BrdU), as a means of scoring the birth and survival of proliferating neural precursor cells in the hippocampus. Because both social interaction and voluntary exercise are known to stimulate hippocampal neurogenesis, mice were housed individually without access to running wheels throughout the screening period. Following the week-long period of compound administration, animals were perfused and sacrificed. Dissected brain tissue was fixed, embedded, sectioned, stained with antibodies to BrdU, and evaluated by light microcopy as a means of quantifying neurogenesis and survival of newborn neural precursor cells localized to the subgranular layer of the dentate gyrus on the brain hemisphere contralateral to the side of mini-pump cannulation. Every fifth section throughout the entire rostral-caudal extent of the hippocampus was analyzed, and the total number of BrdU+ cells was normalized against the measured volume of the dentate gyrus. Because both increased proliferation and survival of newborn neurons are important screening parameters, the screen was conducted over seven days in order to cast a wide net to detect molecules that might augment either process. […] Intracranial infusions of either fibroblast growth factor 2 (FGF-2) or artificial cerebral spinal fluid (aCSF) vehicle via the same, week-long protocol were employed as positive and negative controls. There was no difference in the number of BrdU-labeled cells in the dentate gyrus between mice subjected to surgical pump implantation and infusion with vehicle, and mice having had no surgery (FIG. 2). This confirmed the validity of the in vivo approach to assess the ability of intracerebroventricularly infused compounds to enhance hippocampal neurogenesis in the contralateral hemisphere.
In order to further study Example 45 Compound, an in vivo structure activity relationship (SAR) study was conducted using 37 chemical derivatives of the compound for pro-neurogenic activity via direct administration into the brain of adult mice via Alzet minipumps. Compounds were administered for one week at 10 uM into 4 mice per compound, along with daily IP injections of BrdU. Following compound administration, animals were perfused, sacrificed and subjected to sectioning, staining and light microscopy in order to monitor hippocampal neurogenesis localized to the subgranular layer of the dentate gyrus. Roughly 10% of the variant compounds retained pro-neurogenic activity indistinguishable from the parent compound. […]

[2] = tested on: cultured primary cortical neurons; test: Mitochondrial membrane potential (TMRM) after A23187 in cultured primary cortical neurons; assay type: cell-based; details: rat E14 cortical neurons
From the text: (§1) FIG. 23: Example 45 Compound Preserves Mitochondrial Membrane Potential in Cultured Primary Cortical Neurons. Cortical neurons cultures from rats on embryonic day 14 were loaded with tetramethylrhodamine methyl ester (TMRM) dye after 6 days of maturation. […] The remaining panels are from cells that were exposed to the calcium ionophore A23187 at time zero. With vehicle-alone, cortical neuron mitochondrial membrane potential was rapidly lost after exposure to the ionophore. […] Results shown are representative of 10 fields analyzed in each of 2 experimental runs for all conditions.
as §1, with “It was also examined whether” for “FIG. 23:”, “preserves mitochondrial membrane potential” for “Preserves Mitochondrial Membrane Potential”, “cultured primary cortical neurons (FIG. 23).” for “Cultured Primary Cortical Neurons.”

Solubility = assay type: physicochemical
[3] = tested on: neural precursor cells in the subgranular zone of the dentate gyrus; details: dosed intracranially as a 10 micromolar solution; MacMillan et al., J Am. Chem. Soc. 2011; cited from earlier work
[4] = tested on: hippocampal neurogenesis in the DG; test: Comparison of P7C3 compounds and antidepressant drugs: DG BrdU labeling after i.c.v. infusion; assay type: in vivo, mouse; details: 10 μM i.c.v. for 7 days
From the text: The neuroprotective efficacies of both P7C3 and P7C3-A20 were next compared to currently marketed antidepressant medications, using screening conditions identical to those by which P7C3 was originally discovered. This experiment was based on the antidepressant actions of P7C3 and P7C3-A20 characterized here, and the dependence on hippocampal neurogenesis for behavioral efficacy of some marketed antidepressant medications in mice.
Proneurogenic efficacies in the DG of P7C3 and P7C3A20 were compared to those of vehicle (artificial cerebrospinal fluid) and several marketed antidepressant compounds (Sigma-Aldrich, St. Louis, Mo.) according to established methods. In brief, mice were housed individually in cages without running wheels or any form of environmental enrichment, in order to create an environment predicted to have as low of a baseline level of hippocampal neurogenesis as possible. Compounds (10 μM, i.c.v.) were administered for 7 days via subcutaneously implanted Alzet osmotic minipumps connected to a cannula directed into the left lateral ventricle, with implantation day designated as day 0. Starting on day 1, mice also received daily injections of BrdU (50 mg/kg, i.p.) at 9 am daily, for 6 days. Twenty four hours after the sixth BrdU injection, mice were transcardially perfused as described above.

| SMILES | preservation of mitochondrial membrane potential (U2OS cells) | increase of DG neurogenesis (BrdU labeling) over vehicle [4] | also measured |
| --- | --- | --- | --- |
| COc1cccc(NCC(O)Cn2c3ccc(Br)cc3c3cc(Br)ccc32)c1 (single isomer, unassigned) [Example 1b, 1-(3,6-Dibromo-9H-carbazol-9-yl)-3-(3-methoxyphenylamino)-propan-2-ol] | Preservation of mitochondrial membrane potential in this assay was observed | – | – |
| COc1cccc(NCC(O)Cn2c3ccc(Br)cc3c3cc(Br)ccc32)c1 (single isomer, unassigned; (+)) [(+) enantiomer of Example 62 Compound, 1-(3,6-Dibromo-9H-carbazol-9-yl)-3-(3-methoxyphenylamino)-propan-2-ol] | observed only with the (+) enantiomer | – | pro-neurogenic activity in the in vivo hippocampal neurogenesis assay [1]: fully retained; pro-neurogenic activity in the in vivo hippocampal neurogenesis assay ([1]; listed as (+)-enantiomer of Example 62 Compound): retained potent pro-neurogenic activity |
| OC(CCNc1ccccc1)Cn1c2ccc(Br)cc2c2cc(Br)ccc21 (centres unmarked) [Example 21, 1-(3,6-dibromo-9H-carbazol-9-yl)-4-(phenylamino)butan-2-ol] | displayed less protective effect | – | – |
| Cc1cc(C)n(CC(O)Cn2c3ccc(Br)cc3c3cc(Br)ccc32)n1 (centres unmarked) [Example 33, 1-(3,6-dibromo-9H-carbazol-9-yl)-3-(3,5-dimethyl-1H-pyrazol-1-yl)propan-2-ol] | displayed less protective effect | – | preservation of mitochondrial membrane potential [2]: less effective in preserving mitochondrial membrane potential at any dose tested |
| OC(CNc1ccccc1)Cn1c2ccccc2c2ccccc21 (centres unmarked) [Example 76, 1-(9H-carbazol-9-yl)-3-(phenylamino)propan-2-ol] | – | – | solubility (Solubility): low solubility; pro-neurogenic activity in the in vivo hippocampal neurogenesis assay [1]: found to be active; pro-neurogenic activity of a commercial sample in the neurogenesis assay [3]: indistinguishable from vehicle |
| Fc1ccc([C@@H]2CCNC[C@H]2COc2ccc3c(c2)OCO3)cc1 [paroxetine] | – | did not affect the magnitude of neurogenesis | – |
| NNCCc1ccccc1 [phenelzine] | – | ~52% | – |
| CN[C@H]1CC[C@@H](c2ccc(Cl)c(Cl)c2)c2ccccc21 [sertraline] | – | did not affect the magnitude of neurogenesis | – |
| COc1ccc(C(CN(C)C)C2(O)CCCCC2)cc1 (centres unmarked) [venlafaxine] | – | did not affect the magnitude of neurogenesis | – |
